Experimental data reported in patent publication US12686846B2, “Plant sweet and yeast MSF transporter capable of transporting different sugars simultaneously” (THE BOARD OF TRUSTEES OF THE UNIVERSITY OF ILLINOIS, priority 2020, dated 2026).
“Also recorded” adds a separate entry of the source.

What was measured:
Format in all cases: cell-based
[1] = molecular target: T1, Arabidopsis thaliana AtSWEET7 transporter, wild type (Table 2: SEQ ID NO: 3; FIG. 12: SEQ ID NO:2) (Arabidopsis thaliana, UniProt Q8LBF7); test: C14 labeled sugar uptake assay (zero-trans influx), SR8D8 expressing AtSWEET7; settings: initial glucose uptake (5 s), 30° C., pH 6.5; cell wet weight; ± SEM
T1 construct: expressed in transfected cells; host or cells: S. cerevisiae SR8D8 (SR8 with HXT1-7 and GAL2 deleted), plasmid p42K-GPD1p-CYC1t
T1 sequence (Q8LBF7 1-258): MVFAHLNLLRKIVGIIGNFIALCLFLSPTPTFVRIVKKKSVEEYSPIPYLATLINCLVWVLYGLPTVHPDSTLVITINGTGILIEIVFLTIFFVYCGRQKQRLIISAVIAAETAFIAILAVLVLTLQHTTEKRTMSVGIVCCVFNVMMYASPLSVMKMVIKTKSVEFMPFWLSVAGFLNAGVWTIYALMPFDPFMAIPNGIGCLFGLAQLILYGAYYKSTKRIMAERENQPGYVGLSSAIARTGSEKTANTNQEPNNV
Protocol: (§1) FIG. 7A illustrates sugar uptake kinetics by SR8D8. FIG. 7B illustrates sugar uptake kinetics by SR8D8 expressing AtSWEET1. FIG. 7C illustrates sugar uptake kinetics by SR8D8 expressing ScGal2. FIG. 7D illustrates sugar uptake kinetics by SR8D8 expressing AtSWEET7. FIG. 7E illustrates sugar uptake kinetics by SR8D8 expressing LST1_205437. Initial xylose uptake (20 s) was measured at 30° C. over a concentration range of 1 to 500 mM xylose. FIG. 7F illustrates sugar uptake kinetics by SR8D8. FIG. 7G illustrates sugar uptake kinetics by SR8D8 expressing AtSWEET1. FIG. 7H illustrates sugar uptake kinetics by SR8D8 expressing ScGal2. FIG. 7I illustrates sugar uptake kinetics by SR8D8 expressing AtSWEET7. FIG. 7J illustrates sugar uptake kinetics by SR8D8 expressing LST1_205437. Initial glucose uptake (5 s) was measured at 30° C. over a concentration range of 0.2 to 100 mM glucose. […]
(§2) A xylose fermenting S. cerevisiae yeast (SR8) with HXT1-7Δ, GAL2Δ deletions was used for transporter screening and characterization (SR8D8). […] Biomass was calculated from the OD600 measured using a Biomate 5 UV-visible spectrophotometer (Fisher, NY, USA). All growth rates were measured using a Bioscreen C plate reader system (Growth Curves USA, Piscataway, NJ, USA). […]
(§3) Uptake was measured at sugar concentrations 0.2, 1, 5, 25, and 100 mM for glucose and 1, 5, 25, 66, 100, 200, and 500 mM for xylose. […]

[2] = molecular target: T2, Arabidopsis thaliana AtSWEET1 transporter, wild type, SEQ ID NO: 1 (Arabidopsis thaliana, UniProt Q8L9J7); test: C14 labeled sugar uptake assay, SR8D8 expressing AtSWEET1; settings: in words; FIGS. 7B and 7D legend: FIG. 7G
T2 construct: whole-cell 14C sugar uptake
T2 sequence (Q8L9J7 1-247): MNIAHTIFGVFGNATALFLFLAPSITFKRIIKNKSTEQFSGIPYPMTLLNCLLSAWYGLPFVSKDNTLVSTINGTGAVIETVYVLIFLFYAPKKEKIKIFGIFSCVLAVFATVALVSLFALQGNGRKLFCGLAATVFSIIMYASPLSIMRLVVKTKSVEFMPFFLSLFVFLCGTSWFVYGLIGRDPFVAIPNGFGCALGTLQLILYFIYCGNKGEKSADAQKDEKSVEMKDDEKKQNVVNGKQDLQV
Protocol: as §1, §2, §3

[3] = molecular target: T1, Arabidopsis thaliana AtSWEET7 transporter, wild type (Table 2: SEQ ID NO: 3; FIG. 12: SEQ ID NO:2); test: Inhibition of xylose uptake by glucose, SR8D8 expressing AtSWEET7; settings: 25 mM and 100 mM glucose; in words
Protocol: Symbols: glucose (square), xylose (triangle up), DCW (circle), ethanol (triangle down), glycerol (diamond). […] Global curve fitting for Michaelis-Menten kinetics with competitive inhibition was applied to data of three independent measurements at each concentration.
SR8D8 containing the respective plasmid was grown on selective YPE medium to an OD600 of 1-1.5, harvested by centrifugation, and washed twice in ice-cold uptake buffer (100 mM potassium phosphate, pH 6.5). C14 labeled sugar uptake assay was done according to Boles and Oreb. Radioactivity was analyzed in a Beckman-Coulter LS6500 multi-purpose liquid scintillation counter (Beckman-Coulter, CA, USA).
Sugar solutions contained 0.135-0.608 μCi of D-[U-^14C]-glucose (290-300 mCi/mmol) or D-[1-^14C]-xylose (55 mCi/mmol) (PerkinElmer, MA, USA). Calculation of Km (Michaelis constant), Vmax (maximal initial uptake velocity), and K (inhibitor constant for competitive inhibition) was done by nonlinear regression analysis and global curve fitting in Prism 7 (GraphPad Software) with values of three independent measurements.

OC[C@H]1OC(O)[C@H](O)[C@@H](O)[C@@H]1O (stereo partly drawn) [Glucose]
Vmax (glucose) [1]: 110.3 ± 7.2 nmol/min/mg
glucose transport kinetics [2]: transports glucose more efficiently as compared to AtSWEET7
inhibition of xylose transport by glucose [3]: no inhibition of xylose transport by glucose; also recorded: do not have any xylose transport inhibition
